Measured values: US20150359812A1, “PROPHYLACTIC/THERAPEUTIC AGENT FOR DRY EYE” (priority 2012, published 2015)

Columns and labels:
[1] = test system: radical oxygen species in lacrimal gland tissue; assay: Inhibitory action to radical oxygen species using isolated lacrimal glands of mice (DCFH-DA fluorescence); format: cell-based; settings: for inhibition of radical oxygen by isolated delphinidin glycosides, FIG. 6: lacrimal gland cell suspension, DCFH-DA; for inhibition of radical oxygen in lacrimal cells, FIG. 12: comparison of delphinidin glycosides
Experimental: The action of the maqui berry extract to radical oxygen species in lacrimal gland tissue was evaluated using mice […].
The evaluation of the inhibitory action to radical oxygen species was done in the following way.
An isolated lacrimal gland was placed in a test tube, and 25 mg tissue/mL of cold phosphate-buffered saline (PBS) was added. After that, zirconia beads were added to the lacrimal gland that is to be crushed by a bead grinder. Then, 50 μL each of cell suspension was dispensed. Then, the maqui berry extract of Working Example 1 (1, 10 μg/mL) was added to the cell suspension, and then DCFH-DA solution as the radical oxygen series was added to make the final level of concentration at 75 μm. Then, after 60 minutes of incubation at 37 degrees Celsius, the cells were washed in PBS. The fluorescence-plate reader measured the intensity of fluorescence at (X485/528).
As a Comparative Example, the same test was done on lutein 10 μg/mL (compare and contrast).
Also, as a Comparative Example, the same test was done on the bilberry extract (Indena) and on the black currant extract (Tama Biochemical Co., Ltd.).
Furthermore, the same tests were done on the following examples.
Regarding Fr. 2: delphinidin-3,5-diglucoside (Working Example 3), Fr. 6: delphinidin-3-glucoside (Working Example 5) and delphinidin-3-rutinoside (Comparative Example 1: substance contained in cassis), the same evaluation as in Test Example 2 was done.
Regarding Fr. 6 delphinidin-3-glucoside (Working Example 5) and the other anthocyanin series (petunidin-3-glucoside, peonidin-3-glucoside, malvidin-3-glucoside and cyaniding-3-glucoside), the evaluation of Test Example 2 was done.

lacrimal cells = assay: Absorption test of anthocyanins into lacrimal cells (HPLC); format: in vitro ADME; settings: 100 μM, 30 minutes at 37 degrees Celsius, compared with D3G and D3R
Experimental: The test was done in the following way. Each anthocyanin (of delphinidin-3,5-diglucoside, delphinidin-3-O-glucoside and delphinidin-3-Orutinoside) was added to the lachrymal-cells suspension at the final concentration of 100 μM.
After that, the suspension was incubated for 30 minutes at 37 degrees Celsius. Then, the cells were washed and suspended again in the buffer. Thus, the amount of anthocyanin was analyzed by HPLC. The analysis is as follows.
The condition of HPLC is as follows:
Column: YMC UltraHT Pro C18 dia.2.0×100 mm
Column temperature: 30 degrees Celsius
Eluent: A=0.3% TFA aqueous solution, B=acetonitrile
Flow rate: 0.3 mL/min, Injection volume: 50 μL
Quantitative limit: 2 ng/mL (cyaniding-3-O-glucoside)

Structure (SMILES)	inhibition of radical oxygen by isolated delphinidin glycosides, FIG. 6 [1]	inhibition of radical oxygen in lacrimal cells, FIG. 12 [1]	action in inhibiting radical oxygen in lacrimal cells compared to other anthocyanins, FIG. 13 ([1]; comparison with petunidin-, peonidin-, malvidin- and cyanidin-3-glucoside)	amount of absorption of anthocyanin into the lacrimal cells, FIG. 14 (lacrimal cells)
OC[C@H]1O[C@@H](Oc2cc(O)cc3[o+]c(-c4cc(O)c(O)c(O)c4)c(O[C@@H]4O[C@H](CO)[C@@H](O)[C@H](O)[C@H]4O[C@@H]4OC[C@@H](O)[C@H](O)[C@H]4O)cc23)[C@H](O)[C@@H](O)[C@@H]1O [Fr. 1, Delphinidin-3sambubioside-5-glucoside]	significantly inhibited	–	–	–
OC[C@H]1O[C@@H](Oc2cc3c(O[C@@H]4O[C@H](CO)[C@@H](O)[C@H](O)[C@H]4O)cc(O)cc3[o+]c2-c2cc(O)c(O)c(O)c2)[C@H](O)[C@@H](O)[C@@H]1O [Fr. 2, Delphinidin-3,5-diglucoside]	significantly inhibited	excellent inhibitory action	especially excellent action	absorbed by the lacrimal cells more
OC[C@H]1O[C@@H](Oc2cc3c(O)cc(O)cc3[o+]c2-c2cc(O)c(O)c(O)c2)[C@H](O[C@@H]2OC[C@@H](O)[C@H](O)[C@H]2O)[C@@H](O)[C@@H]1O [Fr. 5, Delphinidin-3-sambubioside]	significantly inhibited	–	–	–
OC[C@H]1O[C@@H](Oc2cc3c(O)cc(O)cc3[o+]c2-c2cc(O)c(O)c(O)c2)[C@H](O)[C@@H](O)[C@@H]1O [Fr. 6, Delphinidin-3-glucoside]	significantly inhibited	inhibited	–	–
CC1O[C@@H](OC[C@H]2OC(Oc3cc4c(O)cc(O)cc4[o+]c3-c3cc(O)c(O)c(O)c3)[C@H](O)C(O)C2O)C(O)C(O)[C@H]1O (stereo partly drawn) [delphinidin-3-rutinoside, reference compound]	–	did not inhibit	–	–
